± gives the expanded uncertainty stated by the source.
Settings: for Triple point temperature: From the change of vapor pressure slope; for vapor or sublimation pressure: Crystal, Rate of evaporation

SMILES: [Cl][Cu] [copper monochloride]
- Triple point temperature (Crystal 1): 701 ± 6 K
- Triple point temperature (Crystal 2): 688 ± 6 K

SMILES: [Cl-].[Cl-].[Cl-].[In+3] [indium chloride]
- vapor or sublimation pressure (570 K): 0.004417 ± 0.00044 kPa
- vapor or sublimation pressure (580 K): 0.007462 ± 0.00075 kPa
- vapor or sublimation pressure (590 K): 0.01238 ± 0.0012 kPa
- vapor or sublimation pressure (600 K): 0.02021 ± 0.002 kPa
- vapor or sublimation pressure (610 K): 0.03245 ± 0.0032 kPa
- vapor or sublimation pressure (620 K): 0.05132 ± 0.0051 kPa
- vapor or sublimation pressure (630 K): 0.07998 ± 0.008 kPa
- vapor or sublimation pressure (640 K): 0.1229 ± 0.012 kPa

— the NIST ThermoML archive (doi:10.1016/j.tca.2015.07.018)
